What is called Papp is the rate of passage across a membrane or cell layer, normalised by area and donor concentration. Lower therefore signals slow passage.

This data set can be described thus: in vitro. Particulars: human, Caco-2.
As for `COc1ccc(OC)c(CCn2cnc3sc4c(c3c2=O)CCC(C(=O)N(C)C)C4)c1` (stereo not drawn), the apparent permeability coefficient (Papp) is 46.8 ×10⁻⁶ cm/s.

As for `COc1cc(C(C)C)c(Oc2cnc(N)nc2N)cc1I`, the Papp is 30.6 ×10⁻⁶ cm/s. Compound `COc1cc(C(C)C)c(Oc2cnc(N)nc2N)cc1S(N)(=O)=O` [GEFAPIXANT] returned a Papp of 0.7 ×10⁻⁶ cm/s.

Source of the values: ChEMBL document CHEMBL4425152, “New P2X3 receptor antagonists. Part 1: Discovery and optimization of tricyclic compounds” (Bioorg Med Chem Lett, 2016).
